Laboratory results taken from patent US10627415B2, “Compositions and methods for diagnosing, monitoring, and treating an autoimmune disease” (BOARD OF TRUSTEES OF MICHIGAN STATE UNIVERSITY, priority 2015, dated 2020).

Legend:
Assay type in all cases: cell-based, human
RBCs [1] = test: 65Zn2+ binding to RBCs; conditions: 20 nM 65Zn2+ and 20 nM C-peptide
Description: In some embodiments, e.g., those in which RBCs are contacted with C-peptide and Zn^2+, Fe^2+, and/or Cr^3+, in the presence of albumin or other C-peptide binding facilitator, Zn^2+, Fe^2+, and/or Cr^3+ uptake by RBCs can be measured (e.g., as a proxy for C-peptide uptake). Methods for detecting or measuring Zn^2+ uptake by RBCs are known in the art and described in, e.g., Horn et al. (1995) J Physiol 489(1):73-80 (describing the use of radiolabeled Zn^2+).
Additional samples from healthy controls and MS patients were analyzed for C-peptide binding, ATP release (10 healthy control patients, 10 MS patients, and 12 MS patients with glybenclamide), and Zn^2+ binding (11 healthy control patients and 22 MS patients). […] Here, 20 nM ^65Zn^2+ was incubated with the RBCs and 20 nM C-peptide. It is noteworthy that in 32 of these 34 samples, MS ATP release, C-peptide and/or Zn^2+ binding, was higher than the control samples analyzed simultaneously with the MS samples.

RBCs of MS patients = test: ATP release from RBCs in a constricted environment (luciferin/luciferase chemiluminescence); conditions: RBCs of MS patients incubated with the inhibitor; 7% hematocrit, flow; MS without inhibitor 344.7±46.8 nM, healthy controls 132.1±14.1 nM
Description: In some embodiments, detecting or measuring the amount of C-peptide uptake can be accomplished by measuring ATP release by the RBCs contacted with C-peptide (and, optionally, Zn^2+, Fe^2+, and/or Cr^3+). Methods for measuring ATP release by RBCs are known in the art and described in, e.g., Faris and Spence (2008) Analyst 133(5):678-682; Fischer et al. (2003) Analyst 128(9):1163-1168; Petruzzi et al. (1994) Metabalism 43(4):435-440; Richards et al. (2013) Am J Physiol Regul Integr Comp Physiol 305(11):R1331-1336; and Richards et al. (2014) Am J Physiol Regul Integr Comp Physiol 307(7):R862-868. For example, ATP can be measured using a luciferin-luciferase assay. […] The light emitted from the reaction with ATP can be quantified using a luminometer. […]
Experiments were performed to determine if RBCs from MS patients (n=19) release more ATP than blood from healthy control patients (n=10) or blood from MS patents combined with the ATP release inhibitor, glybenclamide (Gly; n=12) when subjected to a constricted environment. […] The portion of tubing having the polyimide coating removed was positioned over a light-excluding box containing a photomultiplier tube (PMT), such that chemiluminescence generated from the ATP contacting the detection facilitator was detected. […]

RBCs [2] = test: Effect of C-peptide binding facilitator on C-peptide binding to RBCs (Example 2 protocol); conditions: for C-peptide binding to RBCs, MS: n = 1
Description: Similar studies were performed using serum albumin from other species (human, porcine, chicken); all of these forms deliver C-peptide to RBCs and are useful in the methods described herein.
All samples were handled in an identical manner. Briefly, about 10 mL of blood was drawn from each donor; the RBCs were purified by centrifugation; and the RBCs were suspended in physiological salt solution (PSS). Then RBCs were combined with PSS (containing bovine serum albumin (BSA) as a C-peptide binding facilitator) and C-peptide to generate a mixture having a 7% hematocrit, 20 nM C-peptide, and 75 μM BSA (0.5%). The mixture was allowed to incubate for 2 hours at 37° C. Next, the samples were centrifuged to separate the cells from solution, the solution was diluted 1:50 with double distilled water, and the amount of C-peptide remaining in the solution was determined by ELISA. This provided a value corresponding to the moles of C-peptide bound to the RBCs. […] Whereas blood from the healthy controls bound an average of 1.99±0.32 pmoles C-peptide, blood from MS patients and OND patients bound averages of 3.51±0.59 pmoles of C-peptide and 2.23±0.51 pmoles of C-peptide, respectively. As shown by p values of less than 0.001, the increase in C-peptide binding relative to healthy controls and OND patients is significant.
Experiments were performed to determine the effect of C-peptide binding facilitator concentration on C-peptide binding by RBCs. The protocol of Experiment 2 was repeated, but with increasing BSA concentrations. […] Only a slight increase in C-peptide binding is realized.
Experiments were performed to test various potential C-peptide binding facilitators. The experiments were performed as described in example 2, but the C-peptide binding facilitator, BSA, was replaced with other albumins (porcine serum albumin and ovalbumin) or other proteins (leptin, casein, transferrin, and collagen).

[3] = other protein in place of BSA, n = 3
[4] = other albumin in place of BSA, n = 4

## [65Zn+2] [^65Zn^2+]
RBCs [1]; RBCs of MS patients
  amount of 65Zn2+ able to bind with the RBCs: 3.61±0.22 picomoles
RBCs [1]; RBCs of healthy controls
  amount of 65Zn2+ able to bind with the RBCs: 2.26±0.24 picomoles

## COc1ccc(Cl)cc1C(=O)NCCc1ccc(S(=O)(=O)NC(=O)NC2CCCCC2)cc1 [glybenclamide]
RBCs of MS patients
  ATP release: 65.3 ± 11.6 nM

## bovine serum albumin [BSA]
RBCs [2]; [BSA] 0.5%
  C-peptide binding: 2.14 ± 0.22 pmol
RBCs [2]; [BSA] 1.0%
  C-peptide binding: 2.19 ± 0.16 pmol
RBCs [2]; [BSA] 2.0%
  C-peptide binding: 2.26 ± 0.13 pmol

## casein
RBCs [2]; other protein in place of BSA
  C-peptide binding to RBCs, MS: No binding detected
RBCs [2]; [3]
  C-peptide binding to RBCs, Control: No binding detected

## collagen
RBCs [2]; other protein in place of BSA
  C-peptide binding to RBCs, MS: 0.56 pmol
RBCs [2]; [3]
  C-peptide binding to RBCs, Control: 0.21 ± 0.14 pmol

## leptin
RBCs [2]; other protein in place of BSA
  C-peptide binding to RBCs, MS: 0.97 pmol
RBCs [2]; [3]
  C-peptide binding to RBCs, Control: 0.74 ± 0.11 pmol

## ovalbumin
RBCs [2]; other albumin in place of BSA
  C-peptide binding to RBCs, MS: 0.67 pmol
RBCs [2]; [4]
  C-peptide binding to RBCs, Control: 0.39 ± 0.22 pmol

## transferrin
RBCs [2]; other protein in place of BSA
  C-peptide binding to RBCs, MS: No binding detected
RBCs [2]; [3]
  C-peptide binding to RBCs, Control: No binding detected

B1: porcine serum albumin (protein, UniProt P08835 25-607, looked up)
Albumin: DTYKSEIAHRFKDLGEQYFKGLVLIAFSQHLQQCPYEEHVKLVREVTEFAKTCVADESAENCDKSIHTLFGDKLCAIPSLREHYGDLADCCEKEEPERNECFLQHKNDNPDIPKLKPDPVALCADFQEDEQKFWGKYLYEIARRHPYFYAPELLYYAIIYKDVFSECCQAADKAACLLPKIEHLREKVLTSAAKQRLKCASIQKFGERAFKAWSLARLSQRFPKADFTEISKIVTDLAKVHKECCHGDLLECADDRADLAKYICENQDTISTKLKECCDKPLLEKSHCIAEAKRDELPADLNPLEHDFVEDKEVCKNYKEAKHVFLGTFLYEYSRRHPDYSVSLLLRIAKIYEATLEDCCAKEDPPACYATVFDKFQPLVDEPKNLIKQNCELFEKLGEYGFQNALIVRYTKKVPQVSTPTLVEVARKLGLVGSRCCKRPEEERLSCAEDYLSLVLNRLCVLHEKTPVSEKVTKCCTESLVNRRPCFSALTPDETYKPKEFVEGTFTFHADLCTLPEDEKQIKKQTALVELLKHKPHATEEQLRTVLGNFAAFVQKCCAAPDHEACFAVEGPKFVIEIRGILA
RBCs [2]; other albumin in place of BSA
  C-peptide binding to RBCs, MS: 6.33 pmol
RBCs [2]; [4]
  C-peptide binding to RBCs, Control: 4.01 ± 1.01 pmol
